According to patent US20100267682A1, “CORTICOSTEROIDS TO TREAT EPOTHILONE OR EPOTHILONE DERIVATIVE INDUCED DIARRHEA” (NOVARTIS AG, priority 2007, published 2010):
Like-named read-outs stand apart in the source and are kept apart here. Marks after values point to notes of the source that are not given here.

Key:
[1] = system: BDix rats; assay: Patupilone-induced diarrhea scoring in BDix rats (grade 0-3, AUC days 3-7, days > G1); conditions: for Diarrhoea reduction (T/C) >G1D3-D6 / Diarrhoea reduction (T/C) AUCD3-D7: PAT 1.5 mg/kg i.v. D0, vs patupilone alone; for Diarrh: Days > G1: BDix rats with s.c. A15 glioma
Protocol: They are idendified by ear markings and kept in groups of 4 under normal conditions with access to food and water as libitum. Tumors: Rat glioma cells, A15 (aks 1a2r) are obtained from ECACC. […] Tumors are induced by concentrating 5×10^5 cells in 50 μl and injecting s.c. in the flank of the rats. […] Generally experiments begin when the tumors are >150 mm^3. Patupilone: Patupilone is weighed and dissolved in a vehicle of 30% PEG-300 and 70% normal saline to a final concentration of 1 mg/ml. Patupilone is injected i.v. in the tail vein as a bolus of 2-3 seconds at a dose of 1.5 mg/kg once. […] The suspension is sonicated for 30 min to achieve a milky suspension for oral administration (5 mL/kg).
Although prednisolone is administered orally daily, the dose and number of days of treatment are different in each experiment. The doses are 1, 3, 7 or 10 mg/kg which is roughly equivalent to 6, 17, 40 and 60 mg/m^2, respectively. When prednisolone and patupilone treatment are on the same day, prednisolone is administered 2-4 hours after treatment with patupilone.
Diarrhea: Diarrhea is monitored daily from day 3 post injection fo patupilone which is on day 0. Diarrhea is scored as follows:
Grade 1: soft but formed stool
Grade 2: soft unformed stool
Thus, each rat on each day of diarrhea (5 days from day […]) is graded 0-3 which allows a semi-quantitative analysis of the effects of different treatment. Two different abalytical methods are applied using a) area under the curve (AUCdays3-7) calculated using the trapezoidal rule as applied by Graphpad Prism (v. 4.0 for Windows) and b) the numbere of days in which diarrhea is graded >1. It is believed that the second approach is a more realistic comparison to the clinic since as described above G≦1 is not really diarrhea, and in the clinic, the major issue is avoiding severe diarrhea, i.e. clinical grades of ≧2.
(§1) After 10 days the rats are treated on day-0 once with patupilone (PAT) at 1.5 mg/kg i.v. bolus (G2, G4-G7) or PAT-vehicle (G1 & G3). All rats treated with prednisolone (Predn) received the drug p.o. at 7 mg/kg for 5 consecutive days (except G7 for 3 days only) either 1-day before (G4), on the same day (G7), 1-day after patupilone (G6) or 3-days after patupilone (G5).
Rats receive 7 mg/kg prednisolone (Predn) or the Predn-vehicle p.o. for 5 consecutive days (except G3 for 3 days) starting either on Day-0 (G1-G3) or after 24 hr (D+1) or 24 hr prior to PAT (D−1).

[2] = Protocol: They are idendified by ear markings and kept in groups of 4 under normal conditions with access to food and water as libitum. Tumors: Rat glioma cells, A15 (aks 1a2r) are obtained from ECACC. […] Tumors are induced by concentrating 5×10^5 cells in 50 μl and injecting s.c. in the flank of the rats. […] Generally experiments begin when the tumors are >150 mm^3. Patupilone: Patupilone is weighed and dissolved in a vehicle of 30% PEG-300 and 70% normal saline to a final concentration of 1 mg/ml. Patupilone is injected i.v. in the tail vein as a bolus of 2-3 seconds at a dose of 1.5 mg/kg once.
Efficacy and Tolerability: Tumor volume (Tvol) is quantified by change in tumor volume (endpoint vs. starting value in mm^3). As the T/CTVol, i.e. [ΔTVOldrug/ΔTVolvehicle]. The body weight of the rats is measured three times per week.
as §1, with “(G5). […]” for “(G5).”

[3] = system: Rat glioma cells, A15; assay: BDix rat tumor model: s.c. A15 glioma tumour response; assay type: in vivo; conditions: for T/C Day-14: ΔTVol drug/ΔTVol vehicle
Description: As the T/CTVol, i.e. [ΔTVOldrug/ΔTVolvehicle].

[4] = Total PAT exposure (AUC) in blood, tissues and tumor of BDix rats; assay type: in vivo, rat; conditions: for AUC24-336 hr (total PAT exposure): Example 4, mean ± SD, n = 3, PAT 1.5 mg/kg i.v. day 0, G2 Predn-vehicle or G4 Predn 7 mg/kg p.o. 5 days (D-1)
Protocol: G4 received prednisolone (Predn) p.o. at 7 mg/kg for 5 consecutive days while G2 received Predn-vehicle only for 5 days.

[5] = system: HRPC (hormone-refractory prostate cancer) patients; assay: Clinical trial in HRPC patients: patupilone-induced diarrhea; assay type: in vivo, human; conditions: 10 mg (ca. 5.5 mg/m^2) prednisone per day
Protocol: HRPC (hormone-refractory prostate cancer) patients in a clinical trial are getting 10 mg (ca. 5.5 mg/m^2) prednisone per day.

[6] = Example 1, Predn 1 mg/kg (6 mg/m^2) p.o. 7-days from D0
[7] = Example 1, Predn 3 mg/kg (17 mg/m^2) p.o. 7-days from D0
[8] = Example 1, Predn 10 mg/kg (60 mg/m^2) p.o. 7-days from D0
[9] = Example 2, Predn 3 mg/kg (17 mg/m^2) p.o. 7-days from D0
[10] = Example 2, Predn 10 mg/kg (60 mg/m^2) p.o. 7-days from DO
[11] = Example 3, Predn 7 mg/kg (40 mg/m^2) p.o. 3-days from D0
[12] = Example 3, Predn 7 mg/kg (40 mg/m^2) p.o. 5-days from D+1
[13] = Example 3, Predn 7 mg/kg (40 mg/m^2) p.o. 5-days from D−1
[14] = Example 3, Predn 7 mg/kg (40 mg/m^2) p.o. 7-days from D+3
[15] = Example 3 G3, Predn 7 mg/kg p.o. 5 days + PAT vehicle
[16] = Example 5, Predn 7 mg/kg (40 mg/m^2) p.o. 3-days from D0
[17] = Example 5, Predn 7 mg/kg (40 mg/m^2) p.o. 5-days from D0
[18] = Example 5, Predn 7 mg/kg (40 mg/m^2) p.o. 5-days from D+1
[19] = Example 5, Predn 7 mg/kg (40 mg/m^2) p.o. 5-days from D−1
[20] = Example 3 G3, BDix rats with s.c. A15 glioma, Predn 7 mg/kg p.o. 5 days + PAT vehicle
[21] = Example 1, BDix rats, PAT 1.5 mg/kg i.v. once + Predn vehicle p.o. 7 days
[22] = Example 3 G2, PAT 1.5 mg/kg i.v. day 0 + Predn vehicle
[23] = Example 5 G1, BDix rats, PAT 1.5 mg/kg i.v. Day 0 + Veh-Predn p.o. 5 days (D0)
[24] = Example 2, BDix rats with s.c. A15 glioma, PAT 1.5 mg/kg i.v. once + Predn vehicle p.o. 7 days
[25] = Example 3 G2, BDix rats with s.c. A15 glioma, PAT 1.5 mg/kg i.v. day 0 + Predn vehicle

## C[C@]12C=CC(=O)C=C1CC[C@@H]1[C@@H]2[C@@H](O)C[C@@]2(C)[C@H]1CC[C@]2(O)C(=O)CO [Predn, prednisolone]
[1]; BDix rats, summary of Examples 1-6
  Effect on diarrhea caused by an efficacious dose of patupilone: able to reproducibly reduce diarrhea
[1]; [6]
  Diarrhoea reduction (T/C) >G1D3-D6: 0.81
  Diarrhoea reduction (T/C) AUCD3-D7: 0.85
[1]; [7]
  Diarrhoea reduction (T/C) >G1D3-D6: 0.13
  Diarrhoea reduction (T/C) AUCD3-D7: 0.30
[1]; [8]
  Diarrhoea reduction (T/C) >G1D3-D6: 0.06
  Diarrhoea reduction (T/C) AUCD3-D7: 0.20
[1]; [9]
  Diarrhoea reduction (T/C) >G1D3-D6: 0
  Diarrhoea reduction (T/C) AUCD3-D7: 0.14
[1]; [10]
  Diarrhoea reduction (T/C) >G1D3-D6: 0
  Diarrhoea reduction (T/C) AUCD3-D7: 0.01
[1]; [11]
  Diarrhoea reduction (T/C) >G1D3-D6: 0.57
  Diarrhoea reduction (T/C) AUCD3-D7: 0.60
[1]; [12]
  Diarrhoea reduction (T/C) >G1D3-D6: 0.52
  Diarrhoea reduction (T/C) AUCD3-D7: 0.57
[1]; [13]
  Diarrhoea reduction (T/C) >G1D3-D6: 0.65
  Diarrhoea reduction (T/C) AUCD3-D7: 0.61
[1]; [14]
  Diarrhoea reduction (T/C) >G1D3-D6: 0.57
  Diarrhoea reduction (T/C) AUCD3-D7: 0.75
[1]; [15]
  Diarrh: Days > G1: 0 days
[1]; [16]
  Diarrhoea reduction (T/C) >G1D3-D6: 0.08
  Diarrhoea reduction (T/C) AUCD3-D7: 0.11
[1]; [17]
  Diarrhoea reduction (T/C) >G1D3-D6: 0
  Diarrhoea reduction (T/C) AUCD3-D7: 0.03
[1]; [18]
  Diarrhoea reduction (T/C) >G1D3-D6: 0
  Diarrhoea reduction (T/C) AUCD3-D7: 0.17
[1]; [19]
  Diarrhoea reduction (T/C) >G1D3-D6: 0
  Diarrhoea reduction (T/C) AUCD3-D7: 0.18
[2]; [20]
  Survival: 8/8
[3]; [20]
  ΔTVol Day-14: 728 ± 93
[3]; [15]
  T/C Day-14: 0.93
[4]; BDix rats, summary
  Effect of prednisolone on patupilone exposure: no evidence that prednisolone interferred with significantly with patupilone exposure

## C[C@]12C=CC(=O)C=C1CC[C@@H]1[C@@H]2C(=O)C[C@@]2(C)[C@H]1CC[C@]2(O)C(=O)CO [prednisone]
[5]
  Effect on epothilone B (patupilone)-induced diarrhea: does not seem to have an effect

## C/C(=C\c1csc(C)n1)[C@@H]1C[C@@H]2O[C@]2(C)CCC[C@H](C)[C@H](O)[C@@H](C)C(=O)C(C)(C)[C@@H](O)CC(=O)O1 [PAT, epothilone B]
[1]; [21]
  Diarrhoea: Days > G1: 2.7 ± 0.2 days
[1]; Example 2, PAT 1.5 mg/kg i.v. once + Predn vehicle p.o. 7 days
  Diarrh: Days > G1: 1.7 ± 0.3 days
[1]; [22]
  Diarrh: Days > G1: 2.9 ± 0.3 days
[1]; [23]
  Diarrhoea: Days > G1: 1.5 ± 0.3 days
[2]; [21]
  BW (g) Day-7: 150 ± 3 g
  Survival: 6/6
  Δ% BW Day-7: −16.3 ± 1.3%
  ΔBW (g) Day-7: -29.5 ± 3.1 g
[2]; [24]
  BW (g) Day-6: 186 ± 3 g
  Survival: 6/6
  Δ% BW Day-13: −4.1 ± 2.1%
[2]; [25]
  BW (g) Day-14: 179 ± 4 g
  Survival: 8/8
  Δ% BW Day-7: −18.6 ± 1.3 %
  Δ% BW Day-14: −4.4 ± 1.8 %
[2]; [23]
  BW (g) Day-7: 163 ± 3 g
  Survival: 8/8
  Δ% BW Day-7: −12.0 ± 1.2%
[3]; [24]
  Tumour Wt: 0.83 ± 0.17 g
[3]; [25]
  ΔTVol Day-14: 277 ± 37
[3]; [22]
  T/C Day-14: 0.35*
[4]; Blood
  AUC24-336 hr (total PAT exposure): 1891 ± 344 ng/h/mL
[4]; Brain
  AUC24-336 hr (total PAT exposure): 64948 ± 6237 ng/h/mL
[4]; Caecum
  AUC24-336 hr (total PAT exposure): 53911 ± 10512 ng/h/mL
[4]; Jejunum
  AUC24-336 hr (total PAT exposure): 57045 ± 3988 ng/h/mL
[4]; Liver
  AUC24-336 hr (total PAT exposure): 56278 ± 9988 ng/h/mL
[4]; Tumor
  AUC24-336 hr (total PAT exposure): 142437 ± 36429 ng/h/mL
